This is an account of results in patent US9486440B2, “Uses of indole-ketones or indolidones as neuro-protective drugs” (UNIVERSITY OF MACAU, priority 2011, dated 2016).

Molecules are shown by their SMILES. “Also recorded” adds a separate entry of the source.

By IC50 is commonly meant the concentration that inhibits the measured activity by half.

In series [1] the test system is CGNs. The experiment in a line: MPP+-induced neurotoxicity in CGNs, MTT and LDH assays. The conditions noted are these: pre-treatment 2 hours, then 35 μM MPP+ for 24 hours. Format: cell-based, rat. The protocol:
All animal experiments were conducted according to the ethical guidelines of ICMS, Macau University and the Animal Care Facility, The Hong Kong Polytechnic University. Rat CGNs were prepared from 8-day-old Sprague-Dawley rats (The Animal Care Facility, The Hong Kong Polytechnic University) as described by Li et al., 2005. Briefly, neurons were seeded at a density of 2.7×10^5 cells/ml in basal modified Eagle's medium (Invitrogen) containing 10% fetal bovine serum, 25 mM KCl, 2 mM glutamine, and penicillin (100 units/ml)/streptomycin (100 μg/ml). Cytosine arabinoside (10 μM) was added to the culture medium 24 hour after plating to limit the growth of non-neuronal cells. With the use of this protocol, more than 95% of the cultured cells were granule neurons.
(§1) The percentage of surviving neurons in the presence of SU4312 and/or MPP^+ was estimated by determining the activity of mitochondrial dehydrogenases with 3(4,5-dimethylthiazol-2-yl)-2.5-diphenyltetrazolium bromide (MTT) assay (Li et al., 2007). The assay was performed according to the specifications of the manufacturer (MTT kit I; Roche Applied Science). Briefly, the neurons were cultured in 96-well plates, 10 μl of 5 mg/ml MTT labeling reagent was added to each well containing cells in 100 μl of medium, and the plates were incubated for 4 hours in a humidified incubator at 37° C. After the incubation, 100 μl of the solvating solution (0.01 N HCl in 10% SDS solution) was added to each well for 16-20 hours. Absorbance of the samples was measured at a wavelength of 570 nm with 655 nm as a reference wavelength. Unless otherwise indicated, the extent of MTT conversion in cells exposed to MPP^+ is expressed as a percentage of the control.
Cytotoxicity was determined by measuring the release of lactate dehydrogenase (LDH). Briefly, cells were precipitated by centrifugation at 500 g for 5 min at room temperature, 50 μl of the supernatants was transferred into new wells, and LDH was determined using the in vitro toxicology assay kit (Roche). The absorbance of the samples was measured at a wavelength of 490 nm with 655 nm as a reference wavelength.
Rat CGNs were prepared from 8-day-old Sprague-Dawley rats (The Animal Care Facility, The Hong Kong Polytechnic University) as described by Li et al., 2005. Briefly, neurons were seeded at a density of 2.7×10^5 cells/ml in basal modified Eagle's medium (Invitrogen) containing 10% fetal bovine serum, 25 mM KCl, 2 mM glutamine, and penicillin (100 units/ml)/streptomycin (100 μg/ml). Cytosine arabinoside (10 μM) was added to the culture medium 24 hours after plating to limit the growth of non-neuronal cells. With the use of this protocol, more than 95% of the cultured cells were granule neurons.
as §1, with “The” for “The percentage of surviving neurons in the presence of SU4312 and/or MPP^+ was estimated by determining the activity of mitochondrial dehydrogenases with 3(4,5-dimethylthiazol-2-yl)-2.5-diphenyltetrazolium bromide (MTT) assay (Li et al., 2007). The”, “incubated at 37° C.” for “incubated”, “incubator.” for “incubator at 37° C.”, “The absorbance” for “Absorbance”
Background: Formazan colour is commonly taken as a measure of viable cells.

In another series the target is nNOS (Homo sapiens, UniProt P29475). The following applies: cited from earlier work.
A further series addresses iNOS (Homo sapiens, UniProt P35228). The conditions noted are these: cited from earlier work.
Series [2] deals with CGNs. Briefly: Low potassium-induced cell death in CGNs, MTT assay. In kind it is cell-based. The following applies: 5 mM KCl BME medium, 24 hours; sunitinib 0.1-2 μM. The protocol: Cell viability was measured by MTT assay at 24 hours after low potassium challenge. […] After 24 hours of low potassium challenge, CGNs were assayed with an FDA/PI double staining. […] After 24 hours of low potassium challenge, CGNs were assayed with Hoechst staining. The number of apoptotic nuclei with condensed chromatin were counted from representative Hoechst staining photomicrographs and represented as a percentage of the total number of nuclei counted. […] Intracellular NO level was measured using DAF-FM diacetate as a probe at 4 hour after low potassium challenge. Data, expressed as percentage of control (CGNs were cultured in high potassium medium), were the mean±SEM of three separate experiments; *p<0.05 and **p<0.01 versus low potassium group in (A) and (D) or versus control in (C); ^##p<0.01 versus low potassium group in (C) (Turkey's test).
It was previously reported that low potassium could induce typical apoptosis in cerebellar granule neurons (CGNs) (Fu et al., 2008). […] Cell viability was measured with an MTT assay 24 hours after the low potassium treatment.

Another series relates to zebrafish larvae. The experiment in a line: Locomotion behavioral test of zebrafish larvae. In kind it is in vivo. The conditions noted are these: for MPTP-induced deficit of swimming behavior (total distance travelled): 200 μM MPTP 2 days, then 10 μM MPTP plus drug 3 days, L-deprenyl 20 μM, L-dopa 150 μM. The protocol:
(§2) Wild-type zebrafish (AB strain) and Tg (fli-1:EGFP) transgenic zebrafish were maintained as described in the Zebrafish Handbook (Westerfield, 1993). Zebrafish embryos were generated by natural pair-wise mating (3-12 months old) and raised at 28.5° C. in embryo medium (13.7 mM NaCl, 540 μM KCl, pH 7.4, 25 μM Na2HPO4, 44 μM KH2PO4, 300 μM CaCl2, 100 μM MgSO4, 420 μM NaHCO3, pH 7.4). […] An equal concentration of DMSO in embryo medium was used as vehicle control in each experiment.
Thus the MPTP exposure needs to last 5 day from 1 dpf. […] Thus subsequent locomotion behavioral studies were done with 200 μM MPTP for treatment for 2 days at 1 dpf then replacing insult with 10 μM MPTP for incubation for another 3 days.
(§3) After drug treatment, zebrafish larvae at 6 dpf were transferred into 96-well plates (1 fish/well and 12 larvae/group). Fishes responded with excessive stress reaction (such as rapid and disorganized swimming or immobility for 2 min) due to the handling and monitoring of the behavior were discarded. The experiments were performed in a calm enclosed area. The larvae were allowed to habituate to the new environment for 30 min prior to experiments. Behavior was monitored by an automated video tracking system (Viewpoint, ZebraLab, LifeSciences). The 96-well plates and camera were housed inside a Zebrabox and the swimming pattern of each fish was recorded for 10 min and repeated 3 times, once every other 10 min. The total distance moved was defined as the distance (in cm) that the fish had moved during one session (10 min).
Normally as late as 3 dpf, zebrafish larvae show very little spontaneous swimming, but by 5 dpf they spontaneously swim longer distances and independently search for food. The MPTP exposure therefore needs to last 5 days from 1 dpf. […] Thus subsequent locomotion behavioral studies were performed with 200 μM MPTP for 2-day treatment at 1 dpf then replacing with media containing 10 μM MPTP for another 3-day incubation.
as §3, with “The larvae were discarded due to” for “Fishes responded with”, “reaction to the handling and monitoring of behavior” for “reaction”, “min).” for “min) due to the handling and monitoring of the behavior were discarded.”, “sealed” for “enclosed”, “min. Swimming behavior” for “min prior to experiments. Behavior”, “for” for “repeated”

A further series has as its system zebrafish. The experiment in a line: Toxicity to zebrafish. Format: in vivo. The conditions noted are these: SU5416 10 μM, VRI 3 μM, SU4312 up to 30 μM. The protocol: as §2
(§4) Wild-type zebrafish (AB strain) and Tg(fli-1:EGFP) transgenic zebrafish were maintained as described in the Zebrafish Handbook (Westerfield, 1993). Zebrafish embryos were generated by natural pair-wise mating (3-12 months old) and were raised at 28.5° C. in embryo medium (13.7 mM NaCl, 540 μM KCl, pH 7.4, 25 μM Na2HPO4, 44 μM KH2PO4, 300 μM CaCl2, 100 μM MgSO4, 420 μM NaHCO3, pH 7.4). […] Equal concentration of DMSO in embryo medium was used as vehicle control in each experiment.

The subject of a further series is VEGFR-2. The following applies: cited from earlier work.
Series [3] relates to intersegmental-vessel (ISV) formation. Briefly: Intersegmental-vessel formation in Tg(fli-1:EGFP) zebrafish. Format: in vivo. The conditions noted are these: 1 dpf embryos treated 48 hours; SU4312 3-30 μM, PTK787/ZK222584 0.3-3 μM, VRI 0.1-0.3 μM, SU5416 0.3-1 μM. The protocol: as §2
After drug treatment, zebrafish were removed from microplate and observed for gross morphological changes of blood vessel under a fluorescence microscope (Olympus am Motorized Inverted Microscope, Japan) equipped with a digital camera (DP controller, Soft Imaging System, Olympus). Images were analyzed with Axiovision 4.2 and Adobe Photoshop 7.0.
as §4
After drug treatment, zebrafish were removed from the microplate and observed for gross morphological changes of blood vessel under a fluorescence microscope (Olympus am Motorized Inverted Microscope, Japan) equipped with a digital camera (DP controller, Soft Imaging System, Olympus). Images were analyzed with Axiovision 4.2 and Adobe Photoshop 7.0.

The subject of series [4] is DA neurons in the zebrafish brain. Briefly: MPTP zebrafish, whole-mount immunostaining against tyrosine hydroxylase. The conditions noted are these: 200 μM MPTP, 2 days from 1 dpf; SU4312 3-30 μM, PTK787/ZK222584 0.3-3 μM, SU5416 0.1-1 μM, VRI 0.03-0.3 μM. In kind it is in vivo. The protocol:
as §2

`CC(=N)NCc1cccc(CN)c1` [1400W]: in the series on CGNs [1], the “MPP+-induced cell death (cell viability, MTT and LDH assays)” value (shortened to “MPP+-induced cell death”) is given as “failed to block neuronal death; also recorded: did not show protection”.
For `CCSC(=N)N` [EPTU, 2-ethyl-2-thiopseudourea], the “MPP+-induced cell death” value in the series with CGNs [1] is “prevented MPP^+-induced neuronal death in CGNs”. In addition, the IC50 at nNOS is 36 nM; at iNOS, 17 nM.
As to `CNC(=N)NCCC[C@H](N)C(=O)O` [L-NMMA], the “low potassium-induced cell death (MTT)” value with CGNs [2] is recorded as “at 10-20 μM prevented low potassium-induced neuronal death in CGNs”.
Take `C#CCN(C)[C@H](C)Cc1ccccc1` [L-deprenyl]: in the series with zebrafish larvae, the “MPTP-induced deficit of swimming behavior (total distance travelled)” value (shortened to “MPTP-induced deficit”) is reported as “rescued”.
For the compound `O=C1Nc2ccc(Br)cc2/C1=C/c1cc2c([nH]1)CCCC2` [VRI], in the series with zebrafish, the toxicity to zebrafish entry is on record as “showed toxicity to zebrafish”. In addition, in the series on CGNs [1], the “MPP+-induced cell death” value is “at 1 and 3 μM failed to block neuronal loss in vitro”. Also, in the series with VEGFR-2, the IC50 was 70000 nM. In addition, the “MPTP-induced deficit” value in the series with zebrafish larvae was “but not VRI ameliorated the MPTP-induced deficit of swimming behavior”. The “swimming behavior of normal zebrafish larvae, drug alone” value in the series with zebrafish larvae (zebrafish, in vivo) is on record as “Neither SU5416 nor VRI treatment alone notably altered the swimming behavior”. For the same compound, the “inhibition of intersegmental-vessel (ISV) formation” value in series [3] is on record as “inhibited the formation of intersegmental-vessels”. For the same compound, the “MPTP-induced loss of DA neurons / decrease of TH+ region area” value in series [4] is listed as “could not prevent MPTP-induced decrease in TH^+ region area”.
As for `CN(C)c1ccc(/C=C2\C(=O)Nc3ccccc32)cc1` [cis-SU4312], the IC50 with VEGFR-2 was 800 nM.
As to `N[C@@H](Cc1ccc(O)c(O)c1)C(=O)O` [levodopa], the “MPTP-induced deficit” value in the series with zebrafish larvae was “rescued”.
For `CN(C)c1ccc(/C=C2/C(=O)Nc3ccccc32)cc1` [trans-SU4312], in the series on VEGFR-2, the IC50 was 5200 nM.
